For the data set the following is noted: 101.33 kPa, Liquid, Falling or rolling sphere viscometry.

Usually viscosity stands for the resistance of a fluid to flow.

± gives the expanded uncertainty stated by the source.

For the compound `COCC[N+]1(C)CCOCC1.O=S(=O)([N-]S(=O)(=O)C(F)(F)F)C(F)(F)F`, the viscosity is on record as 306.1 ± 19 mPa·s (298.15 K); 155.9 ± 6.4 mPa·s (308.15 K); 90.68 ± 2.5 mPa·s (318.15 K); 57.23 ± 1.2 mPa·s (328.15 K); 38.69 ± 0.84 mPa·s (338.15 K); 27.54 ± 0.6 mPa·s (348.15 K).
Turning to `COCC[N+]1(C)CCCC1.O=S(=O)([N-]S(=O)(=O)C(F)(F)F)C(F)(F)F`, the viscosity (298.15 K) stood at 54.52 ± 1.1 mPa·s; the viscosity (308.15 K) is on record as 36.94 ± 0.8 mPa·s; the viscosity (318.15 K) worked out at 26.41 ± 0.57 mPa·s; the viscosity (328.15 K) was 18.23 ± 0.39 mPa·s; the viscosity (338.15 K) was determined as 14.06 ± 0.3 mPa·s; the viscosity (348.15 K) amounted to 11.07 ± 0.24 mPa·s.
On to `COCC[N+]1(C)CCCCC1.O=S(=O)([N-]S(=O)(=O)C(F)(F)F)C(F)(F)F`, for which the viscosity (298.15 K) is on record as 102.6 ± 3.1 mPa·s; the viscosity (308.15 K) was 63.22 ± 1.4 mPa·s; the viscosity (318.15 K) came to 41.92 ± 0.91 mPa·s; the viscosity (328.15 K) stood at 29.43 ± 0.64 mPa·s; the viscosity (338.15 K) came out at 21.53 ± 0.46 mPa·s; the viscosity (348.15 K) worked out at 16.32 ± 0.35 mPa·s.

The values are drawn from the NIST ThermoML archive (doi:10.1016/j.fluid.2012.01.018).
